Test results: patent US20030026831A1, “Anionic liposomes for delivery of bioactive agents” (priority 2001, published 2003)
Like-named read-outs stand apart in the source and are kept apart here.

Assays:
neurons = assay: Toxicity screening of commercial cationic lipids; settings: 8 hours after incubation, compared to untreated controls
hippocampal neurons [1] = assay: Endocytosis assays: agents acting on AL-Cy3ON internalization; type: cell-based, rat; settings: 10 minutes pretreatment (0.45 M sucrose, 1 μM FK506, 500 nM RAP, 100 μg/ml heparin or protamine sulfate, 5 μg/ml nocodazole, 10 μg/ml cytochalasin D, 100 nM wortmannin), then AL-Cy3ONs 30 minutes at 37° C.
Experimental: Endocytosis Assays. The following agents were used to manipulate specific steps of the endocytic cycle: 0.45 M hyperosmolar sucrose (ICN biochemicals), 1 μM FK-506 (Calbiochem), and 100 nM wortmannin, 5 μg/ml nocodazole, 10 μg/ml cytochalasin D, 100 μg/ml heparin and 100 μg/ml protamine sulfate, (all from Sigma-Aldrich). Receptor-associated protein (RAP) was a generous gift from Dr. Guojun Bu (Washington University, St. Louis, Mo.) and was used at a concentration of 500 nM (Bu et al., 1994). Cells were treated with the drugs or RAP for 10 minutes prior to incubation with AL-Cy3ONs for 30 minutes at 37° C. and fixed for imaging.
(§1) Confocal Microscopy and Image Analysis. Imaging was performed on a Leica TCS 4D confocal microscope (Deerfield, Ill.) equipped with a Mercury/Xenon lamp and argon/krypton laser. Cells were excited using the 488 nm laser line to detect Oregon Green 488-Transferrin and Alexa488-Dextran, and the emitted fluorescence was collected using a 515 long-pass filter. The 568 nm laser line was used to excite Cy3 and N—Rh-DOPE (LP590 emission). Cells were imaged at a plane midway between the substrate-attached plasma membrane and the top of the cell, such that neuronal nuclei were clearly identifiable. In some cases, the entire volume of the cell was scanned in 0.5 μm increments. Optimal images were obtained by averaging 16 images in the line-scan mode at the same fixed gains for all experiments. All fluorescent images presented in figures were equally contrast enhanced using ADOBE PHOTOSHOP (Adobe, Mountain View, Calif.).

hippocampal neurons [2] = assay: Lipid exacerbation of sub-maximal glutamate toxicity
Experimental: FIG. 9. […] Arrowhead: amount of anionic lipid present in liposomes corresponding to a 1 μM final concentration of ON. Arrow: amount of cationic lipid present in complexes corresponding to a +/−charge ratio of 1/2 and 1 μM final concentration of ON. 20, 40, and 100 μg DC-Chol/DOPE correspond to amounts present in complexes of +/−charge ratio 1.6/1, 3.2/1, and 8/1 (μmole lipid/μmole ON), respectively, for a 1 μM final ON concentration. Data expressed as Mean ±S.E.M., n≧9.
Neurons were treated with amounts of cationic lipid required to complex 1 μM ONs in +/−charge ratios (μmole lipid/μmole ON) of 1/2, 1.6/1, 3.2/1 and 8/1 (6.25, 20, 40 and 100 μg DC-Chol, respectively).

hippocampal neurons [3] = type: cell-based, rat; settings: for Neuronal survival after glutamate: survival at 48 hours
Experimental: Hippocampal Cell Culture. Primary cultures of hippocampal neurons were prepared from neonatal rat pups (p1 or p2) as previously described (Dubinsky, 1993). Neurons were plated at a density of 60,000 cells/cm^2 onto polylysine-coated plastic 12-well plates or 100 mm dishes (Becton Dickinson, Franklin Lakes, N.J.) in Neurobasal medium with B27 supplements (Life technologies, Rockville, Md.) and 0.5 mM glutamine. Fluorodeoxyuridine (15 μg/ml) was added to the cultures 24 hours after plating to inhibit glial growth. Under these culture conditions, the survival and growth of non-neuronal cells was minimized. Cells were maintained at 37° C. in 95% air/5% CO2 and were used between 6-8 days in vitro.
Neuroprotection Experiments. […] The ratio of viable cells to the total number of neurons in the pre-selected fields was calculated for quantifying survival.

hippocampal neurons [4] = assay: Colocalization with transferrin (early and recycling endosomes); type: cell-based, rat; settings: delivered in anionic liposomes
Experimental: (§2) Colocalization of Lipids and Oligonucleotides with Transferrin and Dextran. Intracellular fates of endocytosed liposomes and ONs were determined by comparing their intracellular distributions with that of Oregon Green 488-Transferrin (OG-Tf) and Alexa488-dextran (Molecular Probes, Eugene, Oreg.) used as markers for the recycling and lysosomal compartments, respectively. Neurons were incubated with AL-Cy3ONs and either 100 μg/ml OG-Tf, for 30 minutes, 1 hour or 3 hours; or with 1 mg/ml Alexa488-dextran for 3 hours. For the lipid transport experiments, neurons were incubated with liposomes labeled with N—Rh-DOPE and either OG-TF, for 30 minutes, 1 hour, or 3 hours; or with 1 mg/ml Alexa-dextran for 3 hours. In another set of experiments, neurons were incubated with AL-Cy3ONs for 30 minutes, rinsed and chased with 1 mg/ml Alexa 488 dextran for 3 hours. Cells were rinsed and fixed for imaging as described above.
as §1
(§3) All image analysis was performed using the METAMORPH Imaging System software (Universal Imaging, Downington, Pa.). The cell outlines for each set of double-labeled fields were traced out manually in the corresponding differential interference contrast image and then used to mask the fluorescence images. In each cell, the total fluorescence intensity was measured and the percent of Cy3 label or rhodamine label that colocalized with transferrin or dextran was calculated.

hippocampal neurons [5] = assay: Colocalization with dextran (late endosomes and lysosomes); type: cell-based, rat; settings: 3 h; delivered in anionic liposomes
Experimental: as §2
as §1, with “Optimal images were obtained by averaging 16 images in the line-scan mode at the same fixed gains for all experiments. All fluorescent images presented in figures were equally contrast enhanced using ADOBE PHOTOSHOP (Adobe, Mountain View, Calif.).” left out
as §3

hippocampal neurons [6] = assay: Neuronal calcium (Fura-2) during perfusion of liposomes; type: cell-based, rat; settings: continuous perfusion of N-Rh-DOPE labeled liposomes; 100 μM NMDA as positive stimulus
Experimental: FIG. 4. […] (a) Neurons were treated with 100 μg/ml heparin prior to incubation with AL-Cy3ON. Scale bar: 5 μm. (b) Fura-2 ratios in hippocampal neurons were not altered during perfusion of anionic liposomes labeled with N—Rh-DOPE but increased in response to 100 μM NMDA. Data were from a representative field of 23 neurons from among 110 neurons imaged in 5 experiments. (c) Image taken at 24 min (*) indicated the uptake of N-Rh-DOPE within the same neurons in the field.
Addition of activated a2-M (a2-M*) to cortical neurons caused a Ca^2+ influx that was both spatially and temporally discrete. […] To examine whether the endocytosis of anionic liposomes via LRP caused Ca^2+ influx into neurons, neuronal calcium currents were studied during a continuous perfusion of liposomes labeled with N—Rh-DOPE.
Liposomes labeled with N—Rh-DOPE were prepared in a manner identical to that described in Example 1 for liposomes encapsulating Cy3ONs except that the lipid films contained 1-2.5 mole percent N—Rh-DOPE and the liposomes were prepared with buffer alone (i.e., without ONs).

[7] = Lipid/ON (+/−) charge ratio 1/1
[8] = Lipid/ON (+/−) charge ratio 2/1
[9] = 20 μM each, added 1-2 minutes before 50 μM glutamate

## CCCCCCCC/C=C\CCCCCCCC(=O)OCC(C[N+](C)(C)C)OC(=O)CCCCCCC/C=C\CCCCCCCC (stereo not shown) [DOTAP, 1,2-dioleoyl-3-trimethylammonium-propane]
neurons; [7]
  % Neuronal survival: 28.2%
neurons; [8]
  % Neuronal survival: ˜0%

## RAP: 39 kDa LRP receptor-associated protein, inhibitor of all known ligand interactions of LRP
Hippocampal neurons [1]
  Effect on binding/internalization of AL-Cy3ONs by neurons: both binding and internalization of anionic liposomes was inhibited

## COC(=O)Nc1nc2ccc(C(=O)c3cccs3)cc2[nH]1 [nocodazole]
Hippocampal neurons [1]
  Effect on binding/internalization of AL-Cy3ONs by neurons: intracellular transport was inhibited

## CC(C)CCC[C@@H](C)[C@H]1CC[C@H]2[C@@H]3CC=C4C[C@@H](OC(=O)NCCN(C)C)CC[C@]4(C)[C@H]3CC[C@]12C [DC-Chol, 3β-[N-(N′,N′-dimethylaminoethane)-carbamol] cholesterol]
Hippocampal neurons [2]; 6.25 μg DC-Chol (+/− charge ratio 1/2 for 1 μM ON), 48 hours post-glutamate
  Neuronal survival: survived 48 hours post-glutamate
Hippocampal neurons [2]; 20, 40 and 100 μg DC-Chol (charge ratios 1.6/1, 3.2/1, 8/1), 48 hours post-glutamate
  Neuronal survival: caused extensive neuronal loss
neurons; [7]
  % Neuronal survival: 45.7%
neurons; [8]
  % Neuronal survival: 17.3%

## N#Cc1cc2[nH]c(=O)c(=O)[nH]c2cc1[N+](=O)[O-] [CNQX]
Hippocampal neurons [3]; [9]
  Neuronal survival after glutamate: significantly increased the survival of glutamate-treated neurons

## p53 phosphodiester AsONs: free phosphodiester 5′-CTGTGAATCCTCCATGAC-3′ (SEQ ID NO:2) (unmodified DNA; listed as Rattus norvegicus)
Hippocampal neurons [3]; without encapsulation in anionic liposomes, 50 μM glutamate, 48 hours
  Neuroprotection by free ONs: not neuroprotective

## protamine sulfate
Hippocampal neurons [1]
  Effect on binding/internalization of AL-Cy3ONs by neurons: Neither heparin nor protamine altered the level of Cy3 fluorescence within neurons

## OC[C@H]1O[C@@](CO)(O[C@H]2O[C@H](CO)[C@@H](O)[C@H](O)[C@H]2O)[C@@H](O)[C@@H]1O [sucrose]
Hippocampal neurons [1]
  Effect on binding/internalization of AL-Cy3ONs by neurons: completely prevented internalization

## Lissamine Rhodamine DOPE [N-Rh-DOPE]
Hippocampal neurons [4]; 30 min
  Percent colocalization with Transferrin: 45.56 ± 2.2%
Hippocampal neurons [4]; 1 h
  Percent colocalization with Transferrin: 51.88 ± 2.7%
Hippocampal neurons [5]
  Percent colocalization with Dextran: 22.18 ± 1.5%

## CCCCCCCC/C=C\CCCCCCCC(=O)OC[C@H](COP(=O)(O)OC[C@H](N)C(=O)O)OC(=O)CCCCCCC/C=C\CCCCCCCC [DOPS, 1,2-dioleoyl-sn-glycero-3-[phospho-L-serine]]
Hippocampal neurons [2]; 40 μg lipid (liposomes without AsONs), then 10 μM glutamate for 48 hours
  Neuronal survival: 48%
Hippocampal neurons [2]; liposomes without AsONs, then 10 μM glutamate for 48 hours
  Effect of increasing amounts of lipid on glutamate toxicity: dose-dependently exacerbate toxicity

## Cc1ccc(C(=O)Cn2c3c(sc2=N)CCCC3)cc1 [PFT-α, Pifithrin-α]
Hippocampal neurons [3]
  Concentrations toxic in hippocampal cultures: 20 to 100 µM
Hippocampal neurons [3]; 10 μM, added 3 hours before 50 μM glutamate
  Neuronal survival after glutamate: significantly increased the survival of glutamate-treated neurons
Hippocampal neurons [3]; 50 μM glutamate
  Concentrations not protective: 0.5 to 7 µM

## CN[C@H](CC(=O)O)C(=O)O [NMDA]
Hippocampal neurons [6]
  Calcium response (Fura-2 ratios) in hippocampal neurons: increased

## C=C1[C@@H](C)[C@H]2[C@H](Cc3ccccc3)NC(=O)[C@]23[C@H](OC(C)=O)/C=C/[C@@](C)(O)C(=O)[C@@H](C)C/C=C/[C@H]3[C@@H]1O [cytochalasin D]
Hippocampal neurons [1]
  Effect on binding/internalization of AL-Cy3ONs by neurons: prevented both binding and internalization of the liposomes

## heparin
Hippocampal neurons [1]
  Effect on binding/internalization of AL-Cy3ONs by neurons: Neither heparin nor protamine altered the level of Cy3 fluorescence within neurons

## C[C@]12N[C@H](Cc3ccccc31)c1ccccc12 [MK-801]
Hippocampal neurons [3]; [9]
  Neuronal survival after glutamate: significantly increased the survival of glutamate-treated neurons

## N[C@@H](CCC(=O)O)C(=O)O [glutamate]
Hippocampal neurons [2]; 48 hour exposure to 10 μM glutamate alone
  Neuronal survival: 71%
